Results reported in PubChem BioAssay (NCI).
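These data come from cells grown in 96-well plates and exposed to compound for 48 hours at five concentrations. TGI: concentration producing complete growth inhibition.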

How the values were obtained:
Test in all cases: NCI anticancer screen, dose series, 48 h
[1] = system: MDA-MB-435
[2] = system: 786-0 renal
[3] = system: NCI-H460 lung
[4] = system: EKVX NSCLC
[5] = system: HOP-92 NSCLC
[6] = system: HT29 colon
[7] = system: MDA-N
[8] = system: KM12 colon
[9] = system: BT-549 breast
[10] = system: CCRF-CEM leukemia
[11] = system: RXF 393 renal
[12] = system: OVCAR-3 ovarian
[13] = system: NCI-H23 lung
[14] = system: NCI-H226 lung
[15] = system: SF-539 CNS
[16] = system: TK-10 renal
[17] = system: SK-MEL-28 melanoma
[18] = system: K-562 leukemia
[19] = system: PC-3 prostate
[20] = system: UACC-257 melanoma
[21] = system: SN12C renal
[22] = system: HL-60(TB) leukemia
[23] = system: MCF7 breast
[24] = system: IGROV1 ovarian
[25] = system: M14 melanoma
[26] = system: COLO 205 colon
[27] = system: OVCAR-8 ovarian
[28] = system: UO-31 renal
[29] = system: OVCAR-5 ovarian
[30] = system: SNB-19 CNS
[31] = system: OVCAR-4 ovarian
[32] = system: U251 CNS
[33] = system: SW-620 colon
[34] = system: HCT-15 colon
[35] = system: CAKI-1 renal
[36] = system: SNB-75 CNS
[37] = system: ACHN renal
[38] = system: HOP-62 NSCLC
[39] = system: SK-OV-3 ovarian
[40] = system: DU-145 prostate
[41] = system: A549 NSCLC
[42] = system: SK-MEL-5 melanoma
[43] = system: SK-MEL-2 melanoma
[44] = system: A498 renal
[45] = system: LOX IMVI melanoma
[46] = system: MOLT-4 leukemia
[47] = system: SF-295 CNS
[48] = system: HCT-116 colon
[49] = system: MDA-MB-231 breast
[50] = system: NCI/ADR-RES ovarian
[51] = system: SR leukemia
[52] = system: UACC-62 melanoma
[53] = system: SF-268 CNS
[54] = system: T-47D breast
[55] = system: NCI-H522 lung
[56] = system: RPMI-8226 leukemia
[57] = system: HS 578T breast
[58] = system: MALME-3M melanoma
[59] = system: HCC-2998 colon

Measured: TGI

C(CCCCc1nnc(N2CCOCC2)o1)CCCc1nnc(N2CCOCC2)o1
> 100 µM: [1] | [2] | [3] | [4] | [5] | [6] | [7] | [8] | [9] | [10] | [11] | [12] | [13] | [14] | [15] | [16] | [17] | [18] | [19] | [20] | [21] | [22] | [23] | [24] | [25] | [26] | [27] | [28] | [29] | [30] | [31] | [32] | [33] | [34] | [35] | [36] | [37] | [38] | [39] | [40] | [41] | [42] | [43] | [44] | [45] | [46] | [47] | [48] | [49] | [50]

CCN(CC)CC1CCCCN1CC(=O)N1c2ccccc2NC(=O)c2ccccc21 (stereo not drawn)
44.5 µM: [28]
> 100 µM: [51] | [52] | [1] | [53] | [54] | [2] | [55] | [3] | [4] | [5] | [6] | [7] | [8] | [10] | [11] | [12] | [13] | [14] | [15] | [16] | [17] | [56] | [18] | [19] | [20] | [21] | [22] | [23] | [24] | [25] | [26] | [27] | [57] | [58] | [29] | [30] | [31] | [32] | [33] | [34] | [59] | [35] | [36] | [37] | [38] | [39] | [40] | [41] | [42] | [43] | [44] | [45] | [46] | [47] | [48] | [49] | [50]

CC(=O)/C(=C/n1ccc(=O)[nH]c1=S)C(=O)Nc1ccccc1C
> 100 µM: [52] | [1] | [53] | [54] | [2] | [3] | [4] | [5] | [6] | [7] | [8] | [9] | [11] | [12] | [13] | [14] | [15] | [16] | [17] | [20] | [21] | [22] | [23] | [24] | [25] | [26] | [27] | [28] | [29] | [30] | [31] | [32] | [33] | [34] | [59] | [35] | [36] | [37] | [38] | [39] | [40] | [41] | [42] | [43] | [44] | [45] | [47] | [48] | [49] | [50]
